Patent US20070167408A1, “NOVEL ALKYL PHOSPHOLIPID DERIVATIVES WITH REDUCED CYTOTOXICITY AND USES THEREOF” (ZENTARIS GmbH, priority 2005, published 2007)
Values after ≈ are worked out from the molar mass of the structure shown.

Assays:
[1] = test system: Aspergillus fumigatus 322-384; experiment: Anti-fungal broth microdilution (MIC), fungus B; type: cell-based; details: filamentous protocol, more than 50% growth inhibition, 48 to 72 h
Procedure: (§1) Anti-fungal activity of selected compounds of the invention was assessed by means of anti-fungal susceptibility tests as follows.
(§2) The antifungal activities of the compounds of the invention against different fungi were measured according to standard broth microdilution methods of the US National Committee for Clinical Laboratory standards (NCCLS) for yeasts (NCCLS document M27-A, 1997) and filamentous fungi (NCCLS document M38-A, 2002).
(§3) Stock solutions of compounds of the invention were freshly prepared on the days of experiments equal to 1.28 mg/10 ml media. Serial dilutions were performed to achieve the following testing concentrations: 64 μg/ml, 32 μg/ml, 16 μg/ml, 8 μg/ml, 4 μg/ml, 2 μg/ml, 1 μg/ml, 0.5 μg/ml, 0.25 μg/ml and 0.125 μg/ml.
(§4) An inoculum of 10^6 CFU/ml of the fungi strain was prepared in the appropriate medium and transferred to test tubes for incubation.
(§5) The method is used to determine the minimum inhibitory concentrations (MIC) of drugs on fungi strains. […] For the filamentous fungi protocol, MIC determination took place after 48 to 72 h of culture at 35° C. and was defined at that concentration which produced more than 50% visible growth inhibition.

[2] = test system: Cryptococcus neoformans ATCC 90112; experiment: Anti-fungal broth microdilution (MIC), fungus H; type: cell-based; details: yeast protocol, more than 80% inhibition, 48 h
Procedure: as §1, §2, §3, §4, §5

[3] = test system: Aspergillus fumigatus ATCC 204305; experiment: Anti-fungal broth microdilution (MIC), fungus A; type: cell-based; details: filamentous protocol, more than 50% growth inhibition, 48 to 72 h
Procedure: as §1, §2, §3, §4, §5

[4] = test system: Candida parapsilosis ATCC 22019; experiment: Anti-fungal broth microdilution (MIC), fungus G; type: cell-based; details: yeast protocol, more than 80% inhibition, 48 h
Procedure: as §1, §2, §3, §4, §5

[5] = test system: Cryptococcus neoformans H99; experiment: Anti-fungal broth microdilution (MIC), fungus I; type: cell-based; details: yeast protocol, more than 80% inhibition, 48 h
Procedure: as §1, §2, §3, §4, §5

[6] = test system: Candida albicans ATCC 10231; experiment: Anti-fungal broth microdilution (MIC), fungus D; type: cell-based; details: yeast protocol, more than 80% inhibition, 48 h
Procedure: as §1, §2, §3, §4, §5

[7] = test system: Cryptococcus gattii ATCC 32608; experiment: Anti-fungal broth microdilution (MIC), fungus J; type: cell-based; details: yeast protocol, more than 80% inhibition, 48 h
Procedure: as §1, §2, §3, §4, §5

[8] = test system: Aspergillus fumigatus 040-200167; experiment: Anti-fungal broth microdilution (MIC), fungus C; type: cell-based; details: filamentous protocol, more than 50% growth inhibition, 48 to 72 h
Procedure: as §1, §2, §3, §4, §5

Candida albicans TS3 = experiment: Anti-fungal broth microdilution (MIC), fungus F; type: cell-based; details: yeast protocol, more than 80% inhibition, 48 h
Procedure: as §1, §2, §3, §4, §5

[9] = test system: Candida albicans ATCC 90028; experiment: Anti-fungal broth microdilution (MIC), fungus E; type: cell-based; details: yeast protocol, more than 80% inhibition, 48 h
Procedure: as §1, §2, §3, §4, §5

[10] = test system: Bacteroides fragilis DSM 2151 (ATCC 25285); experiment: Anti-bacterial bouillon microdilution assay (MIC), bacterium E; type: cell-based; details: anaerob, 24 h
Procedure: (§6) Selected compounds of the invention were tested in a bouillon microdilution assay method according to the DIN 58940 (www.din.de) guidelines for determination of susceptibility of bacterial strains with regard to cell growth inhibition. The assay method quantifies bacterial cell growth which corresponds to the turbidity of the liquid culture medium by photometric measurement carried out at 595 nm.
(§7) The method of MIC determination was performed according to DIN 58940-5. The volumina were adapted according to the microdilution method as described in DIN 58940-7 guideline.
(§8) Dependent on water solubility, compounds of the invention were dissolved either in water or ethanol in a concentration of 10 mg/ml. Subsequently, the stock was further diluted in water to a concentration of 512 μg/ml. The following serial dilutions (factor 2) were performed in water resulting in the following […] testing concentrations: 256 μg/ml, 128 μg/ml, 64 μg/ml, 32 μg/ml, 16 μg/ml, 8 μg/ml, 4 μg/ml, 2 μg/ml, 1 μg/ml, 0.5 μg/ml, 0.25 μg/ml and 0.125 μg/ml. Diluted compounds of the invention were transferred in 100 μl volume to the microtiter plate wells.
(§9) Pre-cultures of bacteria were grown in appropriate liquid media (refer to ATCC webpage, www.atcc.org) and afterwards were inoculated in corresponding liquid medium. 100 μl of the inoculums [adjusted to an amount of app. 1×10^6 microorganisms per ml (range of 10^5-10^8 microorganisms per ml)] were added to each of the testing compound concentrations and cultivated under the appropriate conditions.
(§10) Before and after incubation, bacterial growth was determined by photometric analysis against a positive control containing growing bacteria without compound and a sterile/negative control containing only the medium.

[11] = test system: SKOV-3 (human ovary adenocarcinoma) cells; experiment: XTT cytotoxicity assay, SKOV-3 cells; type: cell-based; details: Homo sapiens, SK-OV-3, second set of experiments, read-out: SKOV-3 % INH [100 μM]
Procedure: On the first day of the experiment cells were harvested from exponential phase cultures by trypsination, counted and plated into 96 well flat-bottom micro titer plates depending on the cell line as listed below: [table] After a 24 h recovery to allow the cells to resume exponential growth, the test compounds were diluted immediately prior to use and transferred in 25 μl volume to the wells. Following 2 days of continuous drug exposure 50 μl of freshly prepared XTT-PMS solution {2% 0.386 mg/ml PMS (N-Methyl Dibenzopyrazine Methylsulphate; Sigma, Cat. No. […] Serva, Cat. No. 38450) in RPMI 1640 medium without phenol red} was added to the wells. To measure the proportion of living cells, the cells were incubated for 3 h with XTT-PMS reagent at 37° C., 5% CO2, humidified atmosphere allowing to form the formazan salt. […] Inhibition curves were generated and IC50 values calculated by using GraphPad Prism.

[12] = test system: PC3, RKOp21 and SKOV-3 cell lines; experiment: XTT cytotoxicity assay, mean over all three cell lines; type: cell-based, human; details: mean value over all three cell lines
Procedure: Following 2 days of continuous drug exposure 50 μl of freshly prepared XTT-PMS solution {2% 0.386 mg/ml PMS (N-Methyl Dibenzopyrazine Methylsulphate; Sigma, Cat. No. […] Serva, Cat. No. 38450) in RPMI 1640 medium without phenol red} was added to the wells. To measure the proportion of living cells, the cells were incubated for 3 h with XTT-PMS reagent at 37° C., 5% CO2, humidified atmosphere allowing to form the formazan salt. […] Inhibition curves were generated and IC50 values calculated by using GraphPad Prism. In the following table 7 cytotoxicity results (% inhibition of cell growth) obtained in the second set of experiments for selected compounds of the invention are presented in comparison to examples of the prior art (perifosine, miltefosine). The results presented are individual values for the respective cell line as well as the mean value over all three cell lines tested.

[13] = test system: RKOp21 (human colon adenocarcinoma) cells; experiment: XTT cytotoxicity assay, RKOp21 cells; type: cell-based; details: Homo sapiens; 31.6 μM, second set of experiments; read-out: RKOp21 % INH [31.6 μM]
Procedure: (§11) Cytotoxicity of selected compounds of the invention against different mammalian cell lines was assessed as follows.
(§12) Human tumor cell lines KB/HeLa (ATCC CCL17, human cervix carcinoma), PC3 (ATCC CRL1435, human prostate carcinoma) and RKOp21 (human colon adenocarcinoma; Schmidt et al., Oncogene 2000, 19: 2423-2429) cells were used in an automated XTT screening assay for the assessment of cytotoxicity.
(§13) The XTT assay quantifies cellular metabolic activity which correlates with cell viability and cell number. Test compounds (selected compounds of the invention and known substances as controls) are dissolved in culture medium at 600 μM and added to the tumor cells in 10 different concentrations in a semi-logarithmic fashion starting from 100 μM as highest concentration.
(§14) In a second set of experiments employing PC3, RKOp21 and SKOV-3 (ATCC HTB-77, human ovary adenocarcinoma) cells, test and reference compounds were dissolved in 70% Ethanol/30% H2O in a stock concentration of 10 mM and diluted in cell culture medium to yield either 31.6 μM (PC3 and RKOp21) or 100 μM (SKOV-3) final concentration.
(§15) 48 h later cellular metabolic activity of cells treated with test compounds is quantified by measurement of the absorbance at 490 nm (conversion of XTT dye) in comparison to untreated control cells (100% viability).
(§16) KB/HeLa and PC3 cells were cultivated in RPMI 1640 medium (Gibco, Cat. No. 42401-018) supplemented with 10% heat inactivated fetal calf serum (FCS, Biochrom AG, Cat. No. S0115), 2 mM L-glutamine (Gibco, Cat. No. 25030-24) and 2% Penicillin-Streptomycin (PenStrep, Gibco, Cat. No. 15140-122). RKOp21 cells were grown in DMEM+GlutaMAXTM-I medium (Gibco, Cat. No. 61965-026) supplemented with 10% heat inactivated fetal calf serum (FCS, Biochrom AG, Cat. No. S0115), 2 mM L-glutamine (Gibco, Cat. No. 25030-24), 2% Penicillin-Streptomycin (PenStrep, Gibco, Cat. No. 15140-122) and 1% 1M HEPES (Gibco, Cat. No. 15630-056). All cells were cultured at 37° C. in 5% CO2 humidified air.
(§17) On the first day of the experiment cells were harvested from exponential phase cultures by trypsination, counted and plated into 96 well flat-bottom micro titer plates depending on the cell line as listed below:
(§18) After a 24 h recovery to allow the cells to resume exponential growth, the test compounds were diluted immediately prior to use and transferred in 25 μl volume to the wells.
(§19) Following 2 days of continuous drug exposure 50 μl of freshly prepared XTT-PMS solution {2% 0.386 mg/ml PMS (N-Methyl Dibenzopyrazine Methylsulphate; Sigma, Cat. No. P9625) in PBS+98% 1 mg/ml XTT (Sodium 2,3-bis(2-methoxy-4-nitro-5-sulfophenyl)-5-[(phenylamino)carbonyl]-2H-Tetrazolium; Serva, Cat. No. 38450) in RPMI 1640 medium without phenol red} was added to the wells. To measure the proportion of living cells, the cells were incubated for 3 h with XTT-PMS reagent at 37° C., 5% CO2, humidified atmosphere allowing to form the formazan salt. The amount of soluble formazan salt produced by cellular reduction of XTT is quantified by measuring the absorbance at 490 nm using the Biomek® 2000 ELISA plate reader. %-inhibition (cytotoxicity) of each test compound was calculated in relation to untreated control cells. Inhibition curves were generated and IC50 values calculated by using GraphPad Prism.

[14] = test system: PC3 (human prostate carcinoma) cells; experiment: XTT cytotoxicity assay, PC3 cells; type: cell-based; details: Homo sapiens, PC-3; 31.6 μM, second set of experiments; read-out: PC3 % INH [31.6 μM]
Procedure: as §11, §12, §13, §14, §15, §16, §17, §18, §19

[15] = test system: Moraxella catarrhalis DMS 11994 (ATCC 43617); experiment: Anti-bacterial bouillon microdilution assay (MIC), bacterium D; type: cell-based; details: ATCC43617, 24 h
Procedure: as §6, §7, §8, §9, §10

Compound | MIC, fungus B [1] | MIC, fungus H [2] | MIC, fungus A [3] | MIC, fungus G [4] | MIC, fungus I [5] | MIC, fungus D [6] | MIC, fungus J [7] | MIC, fungus C [8] | MIC, fungus F (Candida albicans TS3) | MIC, fungus E [9] | MIC [10] | inhibition at 100 µM [11] | Mean % INH [12] | inhibition at 31.6 µM [13] | inhibition at 31.6 µM [14] | also measured
CCCCCCCCCCCCCCCCOCCCOP(=O)([O-])OCC[N+](C)(C)C [Compound 8, Phosphoric acid 3-hexadecyloxy-propyl ester 2-trimethyl-ammonium-ethyl ester] |  |  |  |  |  |  |  |  |  |  |  |  |  |  |  | MIC ([1]; Aspergillus fumigatus, 322384): 2 µg/mL; MIC [2]: 2 µg/mL; MIC ([3]; Aspergillus fumigatus, ATCC204305): 2 µg/mL; MIC [4]: 0.75 µg/mL; MIC [5]: 1.5 µg/mL; MIC [6]: 0.75 µg/mL; MIC [7]: 0.75 µg/mL; MIC ([8]; Aspergillus fumigatus, 040200167): 2 µg/mL; MIC (Candida albicans TS3): 1 µg/mL; MIC [9]: 0.75 µg/mL
CCCCCCCCCCCCCCCCCCOP(=O)([O-])OCC[As+](C)(C)C [Compound 22, Phosphoric acid octadecyl ester 2-(N,N,N-trimethyl-arsen)-ethyl ester] | 2 µg/mL | 1.5 µg/mL | 3 µg/mL | 1 µg/mL | 6.6 µg/mL | 0.5 µg/mL | 0.5 µg/mL | 3 µg/mL | 1 µg/mL | 1 µg/mL |  |  |  |  |  | 
CCCCCCCCCCCCCCCCOP(=O)([O-])OCC[N+]1(C)CCCC1 [Compound 90] |  |  |  |  |  |  |  |  |  |  | 128 µg/mL (≈ 295 µM) | 54.6% | 54.0% | 51.9% | 55.5% | 
CCCCCCCCCCCCCCCCOP(=O)([O-])OCC[N+]1(C)C=CC(C(=O)OCC)CC1 (centres unmarked) [Compound 266] |  |  |  |  |  |  |  |  |  |  | 128 µg/mL (≈ 247 µM) | 8.5% | 13.6% | 6.6% | 25.8% | MIC [15]: 8 µg/mL (≈ 15.5 µM)
CCCCCCCC/C=C\CCCCCCCCCCCCOP(=O)([O-])OCC[N+](C)(C)C [ErPC, (13Z)-docosenylphosphocholine, reference compound] | >64 µg/mL | 4 µg/mL (≈ 8.17 µM) | >64 µg/mL | 64 µg/mL (≈ 131 µM) | 3 µg/mL (≈ 6.13 µM) | >64 µg/mL | 1.5 µg/mL (≈ 3.06 µM) | >64 µg/mL | 64 µg/mL (≈ 131 µM) | >64 µg/mL |  |  |  |  |  | 
